Experimental data published in paper PMC10104807, “Modulation of tau tubulin kinases (TTBK1 and TTBK2) impacts ciliogenesis” (Scientific Reports, 2023).

How the values were obtained:
[1] = tested on: 403 wild-type (WT) human kinases; assay: DiscoverX scanMAX kinome-wide selectivity; format: binding; settings: for # scanMAX kinases with PoC < 10: 1 μM; for S10(1 μM): share of 403 WT human kinases with PoC < 10 at 1 μM
Text: This panel includes 403 wild-type (WT) human kinases but not TTBK1/2. […] Substantial overlap between the MRC and DiscoverX scanMAX kinase panels allows the comparison of results for the same kinases in two different assay formats (enzymatic versus binding, respectively) at the same concentration. Selectivity results are included in two columns within Table 1. […] The rightmost column converts this selectivity score into the number of kinases with a PoC < 10 in the scanMAX panel.
The Eurofins DiscoverX Corporation scanMAX assay platform was employed to assess the selectivity of specific analogs at a single concentration (1 µM). As described previously, this assay platform profiles a compound against 403 wild-type human kinases and delivers percent of control (PoC) values. These percent of control values are included in Table 1 and corresponding kinome tree diagrams as well as tables for each analog included in Fig. S1.

[2] = target: T1, PAK7 (Homo sapiens, UniProt Q9P286); assay: DiscoverX scanMAX binding assay
T1 construct: purchased Eurofins (radiometric) / Eurofins DiscoverX scanMAX / Reaction Biology / SignalChem
How it was run: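 Values are percent of control (PoC) from a kinase binding assay, obtained with test compound at 1 µM against a panel of 403 wild-type human kinases.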

[3] = target: T2, TTBK2 kinase domain (Homo sapiens, UniProt Q6IQ55); assay: Thermal shift assay; format: binding; settings: kinase domain 2 µM, inhibitor 10 µM
T2 construct: Either the TTBK1 or TTBK2 kinase domain at 2 µM
Protocol: Either the TTBK1 or TTBK2 kinase domain at 2 µM in 10 mM HEPES pH 7.5 and 500 mM NaCl was mixed with the inhibitors at 10 µM in the presence of SyPRO orange dye (Invitrogen). A Real-Time PCR Mx3005p machine (Stratagene) was used to measure the fluorescence spectrum. The Tm shift assays and data evaluation for melting temperatures were performed according to the previously described protocol.

[4] = target: T3, TAOK1 (Homo sapiens, UniProt Q7L7X3); assay: Eurofins enzymatic radiometric kinase assay; format: biochemical; settings: ATP at Km, duplicate
T3 construct: purchased Eurofins
T3 sequence (Q7L7X3 1-1001): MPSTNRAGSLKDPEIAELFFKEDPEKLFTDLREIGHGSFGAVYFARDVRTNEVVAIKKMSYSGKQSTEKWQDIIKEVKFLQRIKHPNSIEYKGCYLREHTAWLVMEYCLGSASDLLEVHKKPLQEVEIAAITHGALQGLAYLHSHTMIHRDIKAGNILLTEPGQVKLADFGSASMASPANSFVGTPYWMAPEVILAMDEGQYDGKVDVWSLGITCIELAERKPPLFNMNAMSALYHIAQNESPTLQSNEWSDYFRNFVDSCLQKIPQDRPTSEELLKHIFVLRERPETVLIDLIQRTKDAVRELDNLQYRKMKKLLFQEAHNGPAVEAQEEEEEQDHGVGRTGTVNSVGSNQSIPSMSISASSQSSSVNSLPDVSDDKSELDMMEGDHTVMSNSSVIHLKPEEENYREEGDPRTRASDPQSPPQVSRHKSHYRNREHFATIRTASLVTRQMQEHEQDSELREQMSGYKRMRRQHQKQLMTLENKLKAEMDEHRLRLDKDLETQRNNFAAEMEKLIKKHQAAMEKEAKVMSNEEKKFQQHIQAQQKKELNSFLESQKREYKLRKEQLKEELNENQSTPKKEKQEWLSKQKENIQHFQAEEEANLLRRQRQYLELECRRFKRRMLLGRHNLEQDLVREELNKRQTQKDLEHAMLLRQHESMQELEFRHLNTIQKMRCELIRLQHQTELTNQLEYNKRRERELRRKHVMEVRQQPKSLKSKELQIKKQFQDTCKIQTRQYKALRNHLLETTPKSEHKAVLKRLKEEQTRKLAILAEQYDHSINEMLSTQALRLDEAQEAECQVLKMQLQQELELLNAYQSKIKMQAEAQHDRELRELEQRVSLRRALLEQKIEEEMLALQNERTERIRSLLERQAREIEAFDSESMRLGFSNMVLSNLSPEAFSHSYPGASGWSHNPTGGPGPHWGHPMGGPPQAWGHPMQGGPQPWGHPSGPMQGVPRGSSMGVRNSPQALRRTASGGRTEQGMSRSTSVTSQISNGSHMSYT
Protocol: (§1) The column labeled “# < 10 PoC in enzyme panel” in Table 1 reports the number of kinases in this 17-member panel inhibited > 90% by each analog.
(§2) Details about the substrate used, protein constructs, controls, and assay protocol for these kinase assays are available at the Eurofins website: https://www.eurofinsdiscoveryservices.com. Reaction Biology Corp. (RBC) radiometric HotSpot kinase assays were carried out at the Km value for ATP in dose–response (10-pt curve) format for MYLK4, RIPK5, and YSK4 in Table S2. Details about the substrate used, protein constructs, controls, and assay protocol for these kinase assays are available at the RBC website: https://www.reactionbiology.com/list-kinase-targets-us-facility. SignalChem developed an ADP-Glo assay to test for enzymatic inhibition of PIKfyve in dose–response (10-pt curve) format in duplicate.

[5] = target: T4, PAK4 (Homo sapiens, UniProt O96013); assay: Eurofins enzymatic radiometric kinase assay; format: biochemical; settings: ATP at Km, duplicate
T4 construct: purchased Eurofins (radiometric) / Eurofins DiscoverX scanMAX / Reaction Biology / SignalChem
Protocol: as §1, §2

[6] = target: T5, TAOK3 (Homo sapiens, UniProt Q9H2K8); assay: Eurofins enzymatic radiometric kinase assay; format: biochemical; settings: ATP at Km, duplicate
T5 construct: purchased Eurofins (radiometric) / Eurofins DiscoverX scanMAX / Reaction Biology / SignalChem
T5 sequence (Q9H2K8 1-898): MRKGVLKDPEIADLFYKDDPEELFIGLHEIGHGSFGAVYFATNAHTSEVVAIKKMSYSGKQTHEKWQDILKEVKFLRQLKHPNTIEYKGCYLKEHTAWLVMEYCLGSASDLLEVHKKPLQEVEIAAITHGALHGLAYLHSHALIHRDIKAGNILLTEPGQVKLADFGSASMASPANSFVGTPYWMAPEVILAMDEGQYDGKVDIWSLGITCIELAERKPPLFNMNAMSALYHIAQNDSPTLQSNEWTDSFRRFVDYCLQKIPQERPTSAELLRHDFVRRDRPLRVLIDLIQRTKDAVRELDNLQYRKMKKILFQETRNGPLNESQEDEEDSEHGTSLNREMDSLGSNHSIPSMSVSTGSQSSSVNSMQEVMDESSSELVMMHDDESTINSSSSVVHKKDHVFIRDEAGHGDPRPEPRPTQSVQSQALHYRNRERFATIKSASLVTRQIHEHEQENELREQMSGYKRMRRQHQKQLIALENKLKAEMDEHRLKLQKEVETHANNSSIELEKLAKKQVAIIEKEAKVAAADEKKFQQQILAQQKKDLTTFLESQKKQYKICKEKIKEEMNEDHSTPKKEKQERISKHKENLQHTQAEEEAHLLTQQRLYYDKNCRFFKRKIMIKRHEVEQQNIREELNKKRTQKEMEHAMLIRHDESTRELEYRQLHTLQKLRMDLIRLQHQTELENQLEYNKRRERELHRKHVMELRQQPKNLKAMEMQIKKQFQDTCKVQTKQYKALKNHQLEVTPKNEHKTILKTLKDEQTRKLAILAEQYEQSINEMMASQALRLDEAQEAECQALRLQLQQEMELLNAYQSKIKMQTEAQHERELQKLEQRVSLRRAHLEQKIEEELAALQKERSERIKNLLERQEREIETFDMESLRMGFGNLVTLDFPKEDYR
Protocol: as §1, §2

T4 sequence (O96013 whole entry): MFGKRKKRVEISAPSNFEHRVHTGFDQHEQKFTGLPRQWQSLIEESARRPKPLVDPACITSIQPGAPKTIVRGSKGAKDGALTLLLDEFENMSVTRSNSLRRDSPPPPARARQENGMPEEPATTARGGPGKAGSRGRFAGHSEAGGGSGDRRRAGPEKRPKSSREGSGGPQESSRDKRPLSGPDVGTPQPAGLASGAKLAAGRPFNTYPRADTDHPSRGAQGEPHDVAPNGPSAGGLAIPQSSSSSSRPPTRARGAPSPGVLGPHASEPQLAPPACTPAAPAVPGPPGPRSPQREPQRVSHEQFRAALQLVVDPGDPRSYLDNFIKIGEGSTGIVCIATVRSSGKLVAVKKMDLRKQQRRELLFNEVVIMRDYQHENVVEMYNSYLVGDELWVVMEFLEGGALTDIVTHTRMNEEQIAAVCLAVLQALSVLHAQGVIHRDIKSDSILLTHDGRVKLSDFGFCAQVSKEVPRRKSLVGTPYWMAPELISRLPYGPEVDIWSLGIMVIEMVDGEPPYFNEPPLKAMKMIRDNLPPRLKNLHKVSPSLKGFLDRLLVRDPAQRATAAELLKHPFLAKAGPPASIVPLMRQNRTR
T2 sequence (Q6IQ55 21-284 limits assumed): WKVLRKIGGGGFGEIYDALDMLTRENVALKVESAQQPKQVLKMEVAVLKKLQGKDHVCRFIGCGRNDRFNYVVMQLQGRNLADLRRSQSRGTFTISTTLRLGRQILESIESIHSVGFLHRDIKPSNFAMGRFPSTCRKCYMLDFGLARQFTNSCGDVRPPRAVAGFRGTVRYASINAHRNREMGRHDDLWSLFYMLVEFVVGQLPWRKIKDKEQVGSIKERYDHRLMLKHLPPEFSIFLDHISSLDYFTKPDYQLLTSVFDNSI
T1 sequence (Q9P286 whole entry): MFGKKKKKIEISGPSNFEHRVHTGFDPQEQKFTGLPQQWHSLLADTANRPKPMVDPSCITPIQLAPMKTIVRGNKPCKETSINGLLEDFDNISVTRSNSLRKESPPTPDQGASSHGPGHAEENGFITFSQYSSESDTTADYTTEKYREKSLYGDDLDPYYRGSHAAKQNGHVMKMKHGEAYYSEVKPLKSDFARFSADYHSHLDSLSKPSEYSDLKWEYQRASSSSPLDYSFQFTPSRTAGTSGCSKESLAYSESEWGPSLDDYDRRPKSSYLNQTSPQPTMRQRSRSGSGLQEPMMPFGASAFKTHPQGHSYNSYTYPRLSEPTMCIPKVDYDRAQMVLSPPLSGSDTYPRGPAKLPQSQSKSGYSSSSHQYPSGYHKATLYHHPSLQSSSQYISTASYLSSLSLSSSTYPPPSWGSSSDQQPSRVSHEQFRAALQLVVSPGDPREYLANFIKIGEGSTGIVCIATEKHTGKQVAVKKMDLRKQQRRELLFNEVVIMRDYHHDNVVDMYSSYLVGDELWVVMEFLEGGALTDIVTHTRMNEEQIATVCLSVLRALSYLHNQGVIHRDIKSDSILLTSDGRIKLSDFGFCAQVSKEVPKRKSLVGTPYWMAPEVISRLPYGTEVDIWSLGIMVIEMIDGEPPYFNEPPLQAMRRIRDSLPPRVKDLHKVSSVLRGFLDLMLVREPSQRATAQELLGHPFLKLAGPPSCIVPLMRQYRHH

Compound	# scanMAX kinases with PoC < 10 [1]	S10(1 μM) [1]	percent of control (kinase binding) at 1 µM ([2]; read-out: PAK7 % control at 1000nM) [%]	ΔTm at 10 µM [3] [°C]	TAOK1 PoC at 1 μM [4] [PoC]	PAK4 PoC at 1 μM [5] [PoC]	TAOK3 PoC at 1 μM [6] [PoC]	ΔTm TTBK2 [3] [°C]	PAK7 % control at 1000nM ([2]; 1 μM) [% control]
CC(C)(O)C#Cc1ccc2[nH]c3c(c2c1)-c1nc(N)ncc1CCC3 [AMG28, reference compound]	21	0.052	0.3	6.2	2	8	9	–	–
CC(C)(O)C#Cc1ccc2[nH]c3c(c2c1)-c1nc(N)ncc1CC3 [Compound 1]	20	0.05	–	–	5	58	11	5.6	–
CC(C)(O)C#Cc1ccc2[nH]c3c(c2c1)-c1nc(N)ncc1CCCC3 [Compound 2]	–	–	–	–	65	67	78	–	–
CC(C)(O)C#Cc1ccc2[nH]cc(-c3ccnc(N)n3)c2c1 [Compound 3]	34	0.084	–	–	7	30	20	6.2	0.4
COC(C)(C)C#Cc1ccc2[nH]c3c(c2c1)-c1nc(N)ncc1CCC3 [Compound 11]	–	–	–	–	73	91	89	–	–
